Values after ≈ are worked out from the molar mass of the structure shown.
What was measured:
[1] = system: HEK293; test: cells; assay type: functional, Homo sapiens, ATCC CRL1573
[2] = system: Pseudomonas aeruginosa; test: Antibacterial activity against Pseudomonas aeruginosa PAO397 [PAO1 d(mexAB-oprM) d(mexCD-oprJ) d(mexEF-oprN) d(mexJKL) d(mexXY) d(opmH)] (CO-ADD:GN_211); MIC in CAMBH media using NBS plates, by OD(600); assay type: functional; conditions: ASSAY_TEST Inhibition of Bacterial Growth, detection method Absorption (OD600), MEDIA CAMHB, plate type 384well, CORNING #3640, time 18 hr
[3] = system: Staphylococcus aureus; conditions: ASSAY_TEST Inhibition of Bacterial Growth; detection method Absorption (OD600); MEDIA CAMHB; plate type 384well; NBS; CORNING #3640; time 18 hr
Description: (§1) Antibacterial activity against Staphylococcus aureus MRSA ATCC 43300 (CO-ADD:GP_020); MIC in CAMBH media, using NBS plates, by OD(600)

[4] = system: Escherichia coli; conditions: ASSAY_TEST Inhibition of Bacterial Growth; detection method Absorption (OD600); MEDIA CAMHB; plate type 384well; NBS; CORNING #3640; time 18 hr
Description: (§2) Antibacterial activity against Escherichia coli ATCC 25922 (CO-ADD:GN_001); MIC in CAMBH media using NBS plates, by OD(600)

[5] = system: Klebsiella pneumoniae; conditions: ASSAY_TEST Inhibition of Bacterial Growth; detection method Absorption (OD600); MEDIA CAMHB; plate type 384well; NBS; CORNING #3640; time 18 hr
Description: (§3) Antibacterial activity against Klebsiella pneumoniae MDR ATCC 70063 (CO-ADD:GN_003); MIC in CAMBH media using NBS plates, by OD(600)

[6] = system: Pseudomonas aeruginosa; conditions: ASSAY_TEST Inhibition of Bacterial Growth; detection method Absorption (OD600); MEDIA CAMHB; plate type 384well; NBS; CORNING #3640; time 18 hr
Description: (§4) Antibacterial activity against Pseudomonas aeruginosa ATCC 27853 (CO-ADD:GN_042); MIC in CAMBH media using NBS plates, by OD(600)

[7] = system: Acinetobacter baumannii; conditions: ASSAY_TEST Inhibition of Bacterial Growth; detection method Absorption (OD600); MEDIA CAMHB; plate type 384well; NBS; CORNING #3640; time 18 hr
Description: (§5) Antibacterial activity against Acinetobacter baumannii ATCC 19606 (CO-ADD:GN_034); MIC in CAMBH media using NBS plates, by OD600

[8] = system: Candida albicans; conditions: ASSAY_TEST Inhibition of Fungal Growth; detection method Absorption (OD530); plate type 384well; NBS; CORNING #3640
Description: (§6) Antifungal activity against Candida albicans ATCC 90028 (CO-ADD:FG_001); MIC in YNB media using NBS plates, by OD630

[9] = system: Cryptococcus neoformans
Description: Antifungal activity against Cryptococcus neoformans H99 ATCC 208821 (CO-ADD:FG_002); MIC in YNB media using NBS plates, by Resazurin OD(600-570)

[10] = system: Staphylococcus aureus; test: microbe, parasite or virus in culture; conditions: ATCC 43300, 18 h, ASSAY_TEST Inhibition of Bacterial Growth, detection method Absorption (OD600), MEDIA CAMHB, plate type 384well, NBS, CORNING #3640
Description: as §1

[11] = system: Escherichia coli; test: microbe, parasite or virus in culture; conditions: ATCC 25922, 18 h, ASSAY_TEST Inhibition of Bacterial Growth, detection method Absorption (OD600), MEDIA CAMHB, plate type 384well, NBS, CORNING #3640
Description: as §2

[12] = system: Klebsiella pneumoniae; test: microbe, parasite or virus in culture; conditions: ATCC 700603, 18 h, ASSAY_TEST Inhibition of Bacterial Growth, detection method Absorption (OD600), MEDIA CAMHB, plate type 384well, NBS, CORNING #3640
Description: as §3

[13] = system: Pseudomonas aeruginosa; test: microbe, parasite or virus in culture; conditions: ATCC 27853, 18 h, ASSAY_TEST Inhibition of Bacterial Growth, detection method Absorption (OD600), MEDIA CAMHB, plate type 384well, NBS, CORNING #3640
Description: as §4

[14] = system: Acinetobacter baumannii; test: microbe, parasite or virus in culture; conditions: ATCC 19606, 18 h, ASSAY_TEST Inhibition of Bacterial Growth, detection method Absorption (OD600), MEDIA CAMHB, plate type 384well, NBS, CORNING #3640
Description: as §5

[15] = system: Candida albicans; test: microbe, parasite or virus in culture; conditions: ATCC 90028, ASSAY_TEST Inhibition of Fungal Growth, detection method Absorption (OD530), plate type 384well, NBS, CORNING #3640
Description: as §6

[16] = ASSAY_TEST Inhibition of Cell Viability, detection method Resazurin, Fluorescence (ex560/em590), MEDIA DMEM with 10% FBS, plate type 384well, TC, CORNING #3712, time 18 hr, read-out: CC50
[17] = Homo sapiens, ATCC CRL1573, HEK293, ASSAY_TEST Inhibition of Cell Viability, detection method Resazurin, Fluorescence (ex560/em590), MEDIA DMEM with 10% FBS, plate type 384well, TC, CORNING #3712, time 18 hr, read-out: CC50

Row | SMILES | CC50 [1, 16] [µM] | MIC [2] [µM] | MIC [3] [µM] | MIC [4] | MIC [5] [µM] | MIC [6] [µM] | MIC [7] [µM] | MIC [8] | MIC [9] [µM] | CC50 [1, 17] [µM] | CC50 ([1]; Homo sapiens, ATCC CRL1573, HEK293, 18 h) [µM] | MIC [10] [µM] | MIC [11] [µM] | MIC [12] [µM] | MIC [13] [µM] | MIC [14] [µM] | MIC [15] [µM]
1 | C[C@H]1COc2c(N3CCN(C)CC3)c(F)cc3c(=O)c(C(=O)O)cn1c23.C[C@H]1COc2c(N3CCN(C)CC3)c(F)cc3c(=O)c(C(=O)O)cn1c23.O [LEVOFLOXACIN] | > 20 | ≤ 0.156 | 2.5 | <=0.1562 uM | 5 | 2.5 | 10 | >20 µM | > 20 | – | – | – | – | – | – | – | –
2 | CC(C)/N=c1\cc2n(-c3ccc(Cl)cc3)c3ccccc3nc-2cc1Nc1ccc(Cl)cc1 [CLOFAZIMINE] | – | > 20 | 20 (≈ 9.47 µg/mL) | >20 µM | >20 | >20 | >20 | >20 µM | > 20 | > 20 | – | – | – | – | – | – | –
3 | Nc1nc(=O)[nH]cc1F [FLUCYTOSINE] | – | > 20 | >20 | >20 µM | >20 | >20 | >20 | 1.25 µM (≈ 0.161 µg/mL) | 1.25 (≈ 0.161 µg/mL) | > 20 | – | – | – | – | – | – | –
4 | CC(=O)N1CCN(c2ccc(OCC3COC(Cn4ccnc4)(c4ccc(Cl)cc4Cl)O3)cc2)CC1 (centres undefined) [KETOCONAZOLE] | – | 20 (≈ 10.6 µg/mL) | >20 | >20 µM | >20 | >20 | >20 | 0.3125 µM (≈ 0.166 µg/mL) | 5 (≈ 2.66 µg/mL) | – | > 20 | – | – | – | – | – | –
5 | CC(=O)Oc1ccccc1C(=O)Nc1ncc([N+](=O)[O-])s1 [NITAZOXANIDE] | – | > 20 | >20 | >20 µM | >20 | >20 | >20 | >20 µM | > 20 | 8.59 | – | – | – | – | – | – | –
6 | OC(Cn1cncn1)(Cn1cncn1)c1ccc(F)cc1F [FLUCONAZOLE] | – | > 20 | >20 | >20 µM | >20 | >20 | >20 | 2.5 µM (≈ 0.766 µg/mL) | > 20 | > 20 | – | – | – | – | – | – | –
7 | COc1cc(Cc2cnc(N)nc2N)cc(OC)c1OC [TRIMETHOPRIM] | > 20 | 5 (≈ 1.45 µg/mL) | 5 (≈ 1.45 µg/mL) | 2.5 µM (≈ 0.726 µg/mL) | 5 (≈ 1.45 µg/mL) | 20 (≈ 5.81 µg/mL) | >20 | >20 µM | > 20 | – | – | – | – | – | – | – | –
8 | CO[C@@]1(NC(=O)Cc2cccs2)C(=O)N2C(C(=O)O)=C(COC(N)=O)CS[C@@H]21 [CEFOXITIN] | – | > 20 | >20 | 5 µM (≈ 2.14 µg/mL) | >20 | >20 | >20 | >20 µM | > 20 | > 20 | – | – | – | – | – | – | –
9 | O=c1[nH]cnc2c1ncn2[C@H]1CC[C@@H](CO)O1 [DIDANOSINE] | – | > 20 | >20 | >20 µM | >20 | >20 | >20 | >20 µM | > 20 | > 20 | – | – | – | – | – | – | –
10 | CCC(C)n1ncn(-c2ccc(N3CCN(c4ccc(OCC5COC(Cn6cncn6)(c6ccc(Cl)cc6Cl)O5)cc4)CC3)cc2)c1=O (centres undefined) [ITRACONAZOLE] | – | > 20 | >20 | >20 µM | >20 | >20 | >20 | <=0.1562 uM | ≤ 0.156 | > 20 | – | – | – | – | – | – | –
11 | CC(=O)NC[C@H]1CN(c2ccc(N3CCSCC3)c(F)c2)C(=O)O1 [SUTEZOLID] | > 20 | 20 (≈ 7.07 µg/mL) | 5 (≈ 1.77 µg/mL) | >20 µM | >20 | >20 | >20 | >20 µM | > 20 | – | – | – | – | – | – | – | –
12 | Oc1cccc(C(Nc2nccs2)c2ccc3cccnc3c2O)c1 (centres undefined) | – | > 20 | – | – | – | – | – | – | > 20 | 6.67 | – | > 20 | > 20 | > 20 | > 20 | > 20 | > 20
13 | Oc1cc(-c2cccc3ccccc23)[nH]n1 | – | > 20 | – | – | – | – | – | – | > 20 | > 20 | – | > 20 | > 20 | > 20 | > 20 | > 20 | > 20
14 | CC(C)C(=O)N[C@H]1[C@H]([C@H](O)[C@H](O)CO)OC(C(=O)O)=C[C@@H]1N=[N+]=[N-] | – | > 20 | – | – | – | – | – | – | > 20 | > 20 | – | > 20 | > 20 | > 20 | > 20 | > 20 | > 20
15 | Clc1cc(Cl)c2c(c1)CCc1ccccc1C2n1ccnc1 (centres undefined) | – | 20 (≈ 6.58 µg/mL) | – | – | – | – | – | – | 20 (≈ 6.58 µg/mL) | > 20 | – | 20 (≈ 6.58 µg/mL) | > 20 | > 20 | > 20 | > 20 | 5 (≈ 1.65 µg/mL)
16 | CN(O)C(=O)c1cc2c(CN3CCC[C@H]3C(N)=O)cn(Cc3ccc(F)cc3)c2cn1 | – | > 20 | – | – | – | – | – | – | > 20 | > 20 | – | > 20 | > 20 | > 20 | > 20 | > 20 | > 20
17 | Cc1nc2ccc(Oc3ccccc3)cc2c2c1CCN2CCc1ccccc1 | – | 20 (≈ 7.61 µg/mL) | – | – | – | – | – | – | > 20 | 14.4 | – | > 20 | > 20 | > 20 | > 20 | > 20 | > 20
18 | Nc1nc2c(Cc3cccnc3)c[nH]c2c(=O)[nH]1 [PELDESINE] | – | > 20 | – | – | – | – | – | – | > 20 | > 20 | – | > 20 | > 20 | > 20 | > 20 | > 20 | > 20
19 | CCc1cc(Cc2cnc(N)nc2N)cc2c1N(C)CCC2C (centres undefined) | – | > 20 | – | – | – | – | – | – | > 20 | > 20 | – | 10 (≈ 3.11 µg/mL) | > 20 | > 20 | > 20 | > 20 | > 20
20 | COC1CC2CCC(C)C(O)(O2)C(=O)C(=O)N2CCCCC2C(=O)OC(C(C)CC2CCC(OCCO)C(OC)C2)CC(=O)C(C)/C=C(\C)C(O)C(OC)C(=O)C(C)CC(C)/C=C/C=C/C=C/1C (centres undefined) | – | > 20 | – | – | – | – | – | – | ≤ 0.156 | > 20 | – | > 20 | > 20 | > 20 | > 20 | > 20 | ≤ 0.156
21 | O=C(NCc1ccccc1Cl)c1cnc2ccccc2n1 | – | > 20 | – | – | – | – | – | – | > 20 | > 20 | – | > 20 | > 20 | > 20 | > 20 | > 20 | > 20

Reference: ChEMBL document CHEMBL4513161, “CO-ADD screening of MMV (CH) - Pandemic Response Box” (2021)
